In PubChem BioAssay (NCI) one finds GI50 and TGI data, which are given here for eight compounds.

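Five compound concentrations were applied to cells in 96-well plates for 48 hours; endpoints were derived by simple linear interpolation of the resulting dose-response curve. GI50: concentration for 50% inhibition of growth. TGI marks complete inhibition of growth.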

Among the test systems are NCI-H226 lung; HL-60(TB) leukemia; CAKI-1 renal; HOP-62 NSCLC; HCT-15 colon; TK-10 renal; ACHN renal; SW-620 colon; SN12C renal; SR leukemia.
Experiment in all cases: NCI tumour cell line growth inhibition, 48 h

For the compound `COc1cc(Cl)cc(-c2nn(-c3cccc(NC(=O)Nc4cc(C(F)(F)F)cc(C(F)(F)F)c4)c3)cc2-c2ccncc2)c1`, the GI50 is 0.965 µM in the test on NCI-H226 lung; 0.32 µM with HL-60(TB) leukemia; 0.426 µM in the test on CAKI-1 renal; 0.851 µM in the test with HOP-62 NSCLC; 0.383 µM in the test on HCT-15 colon; 0.684 µM in the test with TK-10 renal. Also, the GI50 in the test on ACHN renal is 0.401 µM; in the test with SW-620 colon it was 0.422 µM; in the test with SN12C renal it was 0.427 µM; with SR leukemia, 0.439 µM. The TGI was found to be 7.67 µM with NCI-H226 lung; 2.49 µM in the test on HL-60(TB) leukemia; 4.4 µM in the test with CAKI-1 renal; 2.6 µM in the test on HOP-62 NSCLC; 2.74 µM in the test with HCT-15 colon; 14.6 µM in the test with TK-10 renal. The TGI with ACHN renal stood at 12.7 µM; with SW-620 colon, 2.72 µM; in the test on SN12C renal, 3.05 µM; in the test on SR leukemia, 3.51 µM.
For `Cc1cc(NCc2cc(Nc3ccnc4cc(Cl)ccc34)ccc2F)nc(N2CCN(C)CC2)n1`, the GI50 in the test with NCI-H226 lung is 2.22 µM; in the test on HL-60(TB) leukemia, 1.68 µM; in the test with CAKI-1 renal, 1.67 µM; in the test with HOP-62 NSCLC, 1.62 µM; in the test with HCT-15 colon it was 1.34 µM; with TK-10 renal it was 2.03 µM. Besides, the GI50 in the test on ACHN renal was 2.16 µM; in the test with SW-620 colon it was 1.63 µM; with SN12C renal, 2.32 µM; in the test with SR leukemia, 0.245 µM. Further, the TGI in the test on NCI-H226 lung was 5.5 µM; with HL-60(TB) leukemia, 3.67 µM; in the test with CAKI-1 renal, 4 µM; in the test on HOP-62 NSCLC, 4.79 µM; in the test on HCT-15 colon, 3.45 µM; with TK-10 renal, 5.49 µM. In addition, the TGI stood at 5.38 µM in the test on ACHN renal, 4.23 µM with SW-620 colon, 8.31 µM in the test with SN12C renal and 1.03 µM in the test with SR leukemia.
As to `Cc1cc(=O)[nH]c2cc3c(c4c(n3Cc3ccc(Cl)cc3Cl)CC(C)(C)CC4=O)c(O)c12`, the GI50 in the test on NCI-H226 lung was over 100 µM; in the test with HL-60(TB) leukemia, over 100 µM; in the test with CAKI-1 renal, over 100 µM; in the test with HOP-62 NSCLC it was 77.7 µM; in the test with HCT-15 colon, over 100 µM; in the test with TK-10 renal, over 100 µM. Further, the GI50 in the test on ACHN renal was over 100 µM; in the test with SW-620 colon, over 100 µM; with SN12C renal, over 100 µM; with SR leukemia, 25.2 µM. Moreover, the TGI in the test on NCI-H226 lung, in the test with HL-60(TB) leukemia, in the test on CAKI-1 renal, with HOP-62 NSCLC, in the test on HCT-15 colon and with TK-10 renal was over 100 µM throughout. Moreover, the TGI in the test on ACHN renal, in the test on SW-620 colon, with SN12C renal and in the test on SR leukemia was over 100 µM in each case.
With `COC(=O)C1=C(C(=O)OC)SC(=C(Cl)C(=S)Nc2ccccc2O)S1`, the GI50 was 13.9 µM with NCI-H226 lung; 16.6 µM with HL-60(TB) leukemia; 9.63 µM in the test on CAKI-1 renal; 0.354 µM with HOP-62 NSCLC; 17.7 µM in the test on HCT-15 colon; 7.05 µM in the test with TK-10 renal. Also, the GI50 in the test on ACHN renal is 16.3 µM; in the test with SW-620 colon it was 26.4 µM; with SN12C renal, 9.69 µM; with SR leukemia it was 26.1 µM. Moreover, the TGI in the test with NCI-H226 lung was 39.3 µM; with HL-60(TB) leukemia, over 50 µM; with CAKI-1 renal it was 21.8 µM; in the test with HOP-62 NSCLC, 11.2 µM; in the test with HCT-15 colon it was over 50 µM; in the test on TK-10 renal, 23.9 µM. The TGI was over 50 µM with ACHN renal, over 50 µM with SW-620 colon, 19.7 µM with SN12C renal and over 50 µM in the test on SR leukemia.
As for `O=Cc1ccccc1B(O)O`, the TGI in the test on NCI-H226 lung, in the test with HL-60(TB) leukemia, in the test on CAKI-1 renal, in the test with HOP-62 NSCLC, in the test with HCT-15 colon and with TK-10 renal was over 100 µM each time. For the same compound, the TGI was over 100 µM with ACHN renal, over 100 µM in the test on SW-620 colon, over 100 µM in the test with SN12C renal and 2.08 µM in the test with SR leukemia.
For `O=C1C=CC[C@H](/C=C/c2ccccc2)O1`, the GI50 in the test on NCI-H226 lung was 0.787 µM; with CAKI-1 renal, 1.05 µM; in the test on HOP-62 NSCLC, 7.44 µM; with HCT-15 colon, 3.14 µM; in the test on TK-10 renal, 11.5 µM; in the test on ACHN renal, 4.04 µM. Besides, the GI50 in the test on SW-620 colon is 1.39 µM; in the test with SN12C renal, 3.55 µM; in the test with SR leukemia, 2.78 µM. The TGI in the test on NCI-H226 lung was 4.31 µM; in the test with HL-60(TB) leukemia, over 34 µM; with CAKI-1 renal it was 14.4 µM; in the test with HOP-62 NSCLC, over 61.6 µM; in the test on HCT-15 colon, 22.2 µM; in the test on TK-10 renal, over 53.2 µM. In addition, the TGI in the test with ACHN renal is 16.6 µM; in the test on SW-620 colon, 16 µM; in the test on SN12C renal it was 17.9 µM; in the test on SR leukemia it was over 100 µM.
Regarding `O=C(O)CCSC(=O)Nc1ccccc1F`, the TGI in the test with NCI-H226 lung, with HL-60(TB) leukemia, with CAKI-1 renal, in the test on HOP-62 NSCLC, with HCT-15 colon and in the test with TK-10 renal was over 100 µM each time. For the same compound, the TGI in the test on ACHN renal, in the test with SW-620 colon, in the test with SN12C renal and in the test with SR leukemia was over 100 µM in each case.
Take `COc1ccccc1N1CCN(CCc2c[nH]c3cc4c(cc23)OCO4)CC1`: the GI50 with NCI-H226 lung is 29.9 µM; with HL-60(TB) leukemia it was 10.4 µM; in the test on CAKI-1 renal, 18.5 µM; in the test with HOP-62 NSCLC, 28.6 µM; in the test with HCT-15 colon, 29.6 µM; in the test on TK-10 renal it was 27.1 µM. In addition, the GI50 in the test with ACHN renal was 21.3 µM; with SW-620 colon, 22 µM; in the test with SN12C renal it was 23.5 µM; with SR leukemia, 23.8 µM. In addition, the TGI was over 100 µM in the test with NCI-H226 lung; over 100 µM with HL-60(TB) leukemia; 60.8 µM in the test on CAKI-1 renal; over 100 µM in the test with HOP-62 NSCLC; over 100 µM with HCT-15 colon; over 100 µM in the test with TK-10 renal. The TGI with ACHN renal is over 100 µM; in the test on SW-620 colon, over 100 µM; in the test with SN12C renal, over 100 µM; with SR leukemia, 99 µM.
